Test system: H1 human embryonic stem cells
Test: Secondary assay: panel of compounds with growth factor combinations and muscimol, no activin A (Example 6, Table 5)
Assay type: cell-based
Details: for Cell Number, % of positive control / Cell Number, Average Total Cell Number / Sox17 Expression, % of positive control / Sox17 Expression, Average Total Intensity: no AA (with Wnt3a)
Method: Clusters of H1 human embryonic stem cells were grown on reduced growth factor […]™ (Invitrogen; Cat #356231)-coated tissue culture plastic. Cells were passaged using collagenase (Invitrogen; Cat #17104-019) treatment and gentle scraping, washed to remove residual enzyme, and plated with even dispersal at a ratio of 1:1 (surface area) on reduced growth factor […]™-coated 96-well black plates (Packard ViewPlates; PerkinElmer; Cat #6005182) using volumes of 100 μl/well. Cells were allowed to attach as clusters and then recover log phase growth over a 1 to 3 day period, feeding daily with MEF-conditioned medium supplemented with 8 ng/ml bFGF (R&D Systems; Cat #233-FB). Plates were maintained at 37° C., 5% CO2 in a humidified box throughout the duration of the assay. Stocks of growth factors purchased from R&D Systems were EGF (Cat #236-EG), FGF4 (Cat #235-F4), PDGF-A (Cat #221-AA), PDGF-D (Cat #1159-SB), PDGF-A/B (Cat #222-AB), and VEGF (Cat #293-VE). […] All growth factors were solubilized in PBS with 0.1% BSA (Sigma; Cat #A7888) and stored frozen at −80° C. […] Cat #D2650) and stored frozen at −80° C. Compounds were available as 5 mM stocks in 96-well plate format, solubilized in 100% DMSO and stored at −80° C. Compounds were further diluted to an intermediate concentration of 0.2 mM in 50 mM HEPES (Invitrogen; Cat #15630-080), 20% DMSO and stored at 4° C. All growth factors and inhibitors were prepared in a deep well, 96-well polypropylene plate, diluted to 5× intermediate stocks in DMEM:F12 base medium at the beginning of assay and stored at 4° C. A secondary screening assay was conducted, testing in triplicate and feeding on alternate days over the four-day assay timeframe. Assays were initiated by aspirating culture medium from each well followed by three washes in PBS to remove residual growth factors and serum. Test volumes of 80 μl per well were added back containing DMEM:F12 base medium (Invitrogen; Cat #11330-032) supplemented with 0.625% FCS (HyClone; […] All remaining growth factors were tested at a final assay concentration of 50 ng/ml (EGF, FGF4, PDGF-A, PDGF-A/B, VEGF). […] At the conclusion of four-days of culture, assay plates were washed twice with PBS, fixed with 4% paraformaldehyde (Alexis Biochemical; Cat #ALX-350-011) at room temperature for 20 minutes, then washed three times with PBS and permeabilized with 0.5% Triton X-100 (Sigma; Cat #T8760-2) for 20 minutes at room temperature. Cells were washed again three times with PBS and blocked with 4% chicken serum (Invitrogen; Cat #16110082) in PBS for 30 minutes at room temperature. Primary antibody (goat anti-human SOX17; R&D Systems; cat #AF1924) was diluted 1:100 in 4% chicken serum and added to each well for one hour at room temperature. Alexa Fluor 488 conjugated secondary antibody (chicken anti-goat IgG; Molecular Probes; Cat #AZ1467) was diluted 1:200 in PBS and added to each sample well after washing three times with PBS. To counterstain nuclei, 4 μg/ml Hoechst 33342 (Invitrogen; Cat #H3570) was added for ten minutes at room temperature. Plates were washed once with PBS and left in 100 μl/well PBS for imaging. Imaging was performed using an IN Cell Analyzer 1000 (GE Healthcare) utilizing the 51008bs dichroic for cells stained with Hoechst 33342 and Alexa Fluor 488. Exposure times were optimized from positive control wells and from untreated negative control wells stained with secondary antibody alone. Images from 15 fields per well were acquired to compensate for any cell loss during the bioassay and subsequent staining procedures. […] Segmentation for the nuclei was determined based on grayscale levels (baseline range 100-300) and nuclear size. Averages and standard deviations were calculated for each replicate data set. Total SOX17 protein expression was reported as total intensity or integrated intensity, defined as total fluorescence of the cell multiplied by the area of the cell. […]

[1] = EGF + FGF4 + PDGF-AB + Muscimol

Row | Compound | Cell Number, % of positive control (EGF) [%] | Cell Number, Average Total Cell Number (EGF) | Sox17 Expression, % of positive control (EGF) [%] | Sox17 Expression, Average Total Intensity (EGF) | Cell Number, % of positive control (EGF + FGF4) [%] | Cell Number, Average Total Cell Number (EGF + FGF4) | Sox17 Expression, % of positive control (EGF + FGF4) [%] | Sox17 Expression, Average Total Intensity (EGF + FGF4) | Cell Number, % of positive control (EGF + FGF4 + PDGF-A + Muscimol) [%] | Cell Number, Average Total Cell Number (EGF + FGF4 + PDGF-A + Muscimol) | Sox17 Expression, % of positive control (EGF + FGF4 + PDGF-A + Muscimol) [%] | Sox17 Expression, Average Total Intensity (EGF + FGF4 + PDGF-A + Muscimol) | Cell Number, % of positive control (EGF + FGF4 + PDGF-A + VEGF) [%] | Cell Number, Average Total Cell Number (EGF + FGF4 + PDGF-A + VEGF) | Sox17 Expression, % of positive control (EGF + FGF4 + PDGF-A + VEGF) [%] | Sox17 Expression, Average Total Intensity (EGF + FGF4 + PDGF-A + VEGF) | Cell Number, % of positive control (EGF + FGF4 + PDGF-AB) [%] | Cell Number, Average Total Cell Number (EGF + FGF4 + PDGF-AB) | Sox17 Expression, % of positive control (EGF + FGF4 + PDGF-AB) [%] | Sox17 Expression, Average Total Intensity (EGF + FGF4 + PDGF-AB) | also measured
1 | O=C1NCCCc2cncc(c2)-c2ncnc(n2)Nc2cc(Cl)cc(c2)CN2CCCC1C2 (stereo not shown) [Compound 37, 10-Chloro-3,5,7,14,20,26,31-heptaazapentacyclo[22.3.1.1˜2,6˜0.1˜8,12˜0.1˜14,18˜]hentriaconta-1(28), 2(31), 3,5,8(30), 9,11,24,26-nonaen-19-one] | 76.17 | 7966 | −7.42 | −1.19E+07 | 66.28 | 6932 | −2.89 | −4.62E+06 | 55.66 | 5821 | −7.64 | −1.22E+07 | 83.93 | 8778 | 0.09 | 1.39E+05 | 71.46 | 7473 | −1.63 | −2.61E+06 | Cell Number, % of positive control [1]: 75.67%; Cell Number, Average Total Cell Number [1]: 7914; Sox17 Expression, % of positive control [1]: −1.20%; Sox17 Expression, Average Total Intensity [1]: −1.91E+06; Cell Number, % of positive control (EGF + PDGF-A + VEGF): 123.88%; Cell Number, Average Total Cell Number (EGF + PDGF-A + VEGF): 12956; Sox17 Expression, % of positive control (EGF + PDGF-A + VEGF): −7.82%; Sox17 Expression, Average Total Intensity (EGF + PDGF-A + VEGF): −1.25E+07; Cell Number, % of positive control (FGF4 + PDGF-A + VEGF): 64.36%; Cell Number, Average Total Cell Number (FGF4 + PDGF-A + VEGF): 6731; Sox17 Expression, % of positive control (FGF4 + PDGF-A + VEGF): −6.89%; Sox17 Expression, Average Total Intensity (FGF4 + PDGF-A + VEGF): −1.10E+07
2 | O=C1CCN2CCN(CC2)Cc2cc(Cl)cc(c2)Nc2ncnc(n2)-c2cncc(c2)CCCN1 [Compound 34, 5-Chloro-1,8,10,12,16,22,26,32-octaazapentacyclo[24.2.2.1˜3.7˜0.1˜9,13˜0.1˜14.18˜]tritriaconta-3(33), 4,6,9(32), 10,12,14(31), 15,17-nonaen-23-one] | 124.89 | 13062 | 17.39 | 2.78E+07 | 125.58 | 13133 | 76.85 | 1.23E+08 | 116.72 | 12208 | 34.83 | 5.56E+07 | 123.36 | 12901 | 31.35 | 5.01E+07 | 119.83 | 12532 | 68.41 | 1.09E+08 | response with growth factors (cell numbers and SOX17 expression) (2.5 μM, all growth factor combinations tested, no activin A): significant synergistic responses with all growth factors tested; Cell Number, % of positive control [1]: 151.18%; Cell Number, Average Total Cell Number [1]: 15811; Sox17 Expression, % of positive control [1]: 4.32%; Sox17 Expression, Average Total Intensity [1]: 6.90E+06; Cell Number, % of positive control (EGF + PDGF-A + VEGF): 112.84%; Cell Number, Average Total Cell Number (EGF + PDGF-A + VEGF): 11801; Sox17 Expression, % of positive control (EGF + PDGF-A + VEGF): 2.53%; Sox17 Expression, Average Total Intensity (EGF + PDGF-A + VEGF): 4.04E+06; Cell Number, % of positive control (FGF4 + PDGF-A + VEGF): 145.93%; Cell Number, Average Total Cell Number (FGF4 + PDGF-A + VEGF): 15262; Sox17 Expression, % of positive control (FGF4 + PDGF-A + VEGF): 7.18%; Sox17 Expression, Average Total Intensity (FGF4 + PDGF-A + VEGF): 1.15E+07
3 | CCN1CCCc2cccc(c2)-c2ncnc(n2)Nc2cccc(c2)CCNC(=O)C1 [Compound 29, 18-Ethyl-3,5,7,15,18,28-hexaazatetracyclo[20.3.1.1˜2,6˜0.1˜8,12˜]octacosa-1(26), 2(28), 3,5,8(27), 9,11,22,24-nonaen-16-one] | 18.84 | 1971 | −9.00 | −1.44E+07 | 71.10 | 7436 | −2.72 | −4.35E+06 | 96.30 | 10071 | 1.85 | 2.95E+06 | 84.70 | 8858 | −4.48 | −7.15E+06 | 62.48 | 6535 | −4.71 | −7.52E+06 | Cell Number, % of positive control [1]: 13.15%; Cell Number, Average Total Cell Number [1]: 1376; Sox17 Expression, % of positive control [1]: −8.91%; Sox17 Expression, Average Total Intensity [1]: −1.42E+07; Cell Number, % of positive control (EGF + PDGF-A + VEGF): 84.91%; Cell Number, Average Total Cell Number (EGF + PDGF-A + VEGF): 8880; Sox17 Expression, % of positive control (EGF + PDGF-A + VEGF): −5.34%; Sox17 Expression, Average Total Intensity (EGF + PDGF-A + VEGF): −8.53E+06; Cell Number, % of positive control (FGF4 + PDGF-A + VEGF): 77.89%; Cell Number, Average Total Cell Number (FGF4 + PDGF-A + VEGF): 8146; Sox17 Expression, % of positive control (FGF4 + PDGF-A + VEGF): −3.02%; Sox17 Expression, Average Total Intensity (FGF4 + PDGF-A + VEGF): −4.82E+06

Reference: patent publication US9593305B2, “Differentiation of pluripotent stem cells” (Janssen Biotech, Inc., priority 2008, dated 2017)
